# Earlier results as cited in patent US7320970B2, “Low dose estrogen interrupted hormone replacement therapy” (Duramed Pharmaceutials, Inc., priority 1999, dated 2008).
# Assays:
# [1] = molecular target: T1, human sex-hormone-binding globulin (SHBG) (Homo sapiens, UniProt P04278)
# T1 sequence (P04278 30-402): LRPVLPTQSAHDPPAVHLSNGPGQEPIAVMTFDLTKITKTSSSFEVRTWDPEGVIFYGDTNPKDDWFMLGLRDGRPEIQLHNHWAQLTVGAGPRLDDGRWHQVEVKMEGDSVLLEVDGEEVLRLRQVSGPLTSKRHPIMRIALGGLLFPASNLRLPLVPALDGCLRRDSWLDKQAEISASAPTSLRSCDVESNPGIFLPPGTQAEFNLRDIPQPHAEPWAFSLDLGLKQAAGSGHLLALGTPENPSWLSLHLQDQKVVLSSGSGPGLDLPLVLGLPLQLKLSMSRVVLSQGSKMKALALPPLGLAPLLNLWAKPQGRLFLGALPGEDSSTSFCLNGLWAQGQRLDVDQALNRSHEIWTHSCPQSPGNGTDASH
smiles,measurement,setting,value
CC(=O)O[C@]1(C(C)=O)CC[C@H]2[C@@H]3C=C(C)C4=CC(=O)CC[C@]4(C)[C@H]3CC[C@@]21C [megestrol acetate],decrease in the frequency of hot flushes,"hot flushes; dose of 20 to 80 mg/day, versus 21 percent with placebo",85%
C#C[C@]1(OC(C)=O)CC[C@H]2[C@@H]3CCC4=CC(=O)CC[C@@H]4[C@H]3CC[C@@]21C [norethindrone acetate],effectiveness against hot flushes,hot flushes; 10 mg daily,effective
"C#C[C@]1(OC(C)=O)CC[C@H]2[C@@H]3CCC4=C/C(=N/O)CC[C@@H]4[C@H]3CC[C@@]21CC [norgestimate, D-17β-acetoxy-B-ethyl-17α ethinyl-gon-4-en-3-one oxime]",affinity for SHBG,[1],lack of affinity for SHBG
same,binding to progestin receptors,progestin receptors,binds to progestin receptors
